Like-named read-outs stand apart in the source and are kept apart here. Bounds are passed on as bounds.

Experimental findings from patent US7812172B2, “Thiazolothiazole derivative” (Fuji Xerox Co., Ltd., priority 2008, dated 2010) are described below.

The nature of this series: Evaluation of solubility of thiazolothiazole derivatives in organic solvents. Format: physicochemical. The conditions noted are these: for solubility: organic solvent or mixture, thermodynamic from solid, 25° C., else heated to boiling temperature, naked eye. The method, then: In the present exemplary embodiment, the term “dissolve” refers to a state in which, after the thiazolothiazole derivative according to the present exemplary embodiment is added to an organic solvent, no crystal is observed by observation with the naked eye. The term “high solubility” or “good solubility” refers to such properties that the thiazolothiazole derivative dissolves at the boiling temperature of the organic solvent.
The solubility test is performed as follows:
10 mg (1.0 weight %) of an exemplary compound to be tested is dissolved in 1 ml of a solvent (such as dichlorobenzene, monochlorobenzene, chloroform, THF, toluene or xylene). […] The degree of dissolution is observed with the naked eye.
A: dissolves even when heating is not conducted
B: completely dissolves when heating is conducted
C: a large proportion thereof dissolves when heating is conducted
D: a small proportion thereof dissolves when heating is conducted

[1] abbreviates: 10 mg (1.0 weight %) in 1 ml THF, read-out: Solubility THF.
Where [2] appears, read: 10 mg (1.0 weight %) in 1 ml chloroform, read-out: Solubility Chloroform.
Where [3] appears, read: 10 mg (1.0 weight %) in 1 ml dichlorobenzene, read-out: Solubility Dichlorobenzene.
Where [4] appears, read: 10 mg (1.0 weight %) in 1 ml monochlorobenzene, read-out: Solubility Monochlorobenzene.
Setting [5] is: 10 mg (1.0 weight %) in 1 ml toluene, read-out: Solubility Toluene.
The mark [6] stands for this setting: 10 mg (1.0 weight %) in 1 ml xylene, read-out: Solubility Xylene.

In the case of `CCCCOc1ccc(-c2ccc(-c3nc4sc(-c5ccc(-c6ccc(OCCCC)cc6)s5)nc4s3)s2)cc1` [Exemplary Compound (11)], the solubility was less than 10000 µg/mL under setting [1]; less than 10000 µg/mL under setting [2]; less than 10000 µg/mL under setting [3]; less than 10000 µg/mL under setting [4]; less than 10000 µg/mL under setting [5]; less than 10000 µg/mL under setting [6].
On to `CCCCCCCCc1ccc(-c2cc(CCCCCCCC)c(-c3nc4sc(-c5sc(-c6ccc(CCCCCCCC)cc6)cc5CCCCCCCC)nc4s3)s2)cc1` [Exemplary Compound (27)], for which the solubility is greater than 10000 µg/mL under setting [1]; greater than 10000 µg/mL under setting [2]; greater than 10000 µg/mL under setting [3]; greater than 10000 µg/mL under setting [4]; greater than 10000 µg/mL under setting [5]; greater than 10000 µg/mL under setting [6].
`CCCCc1ccc(-c2ccc(-c3nc4sc(-c5ccc(-c6ccc(CCCC)cc6)s5)nc4s3)s2)cc1` [Exemplary Compound (1)]: the solubility was less than 10000 µg/mL under setting [1]; less than 10000 µg/mL under setting [2]; less than 10000 µg/mL under setting [3]; less than 10000 µg/mL under setting [4]; less than 10000 µg/mL under setting [5]; less than 10000 µg/mL under setting [6].
`c1csc(-c2ccc(-c3nc4sc(-c5ccc(-c6cccs6)s5)nc4s3)s2)c1` [Compound 3, reference compound]: the solubility by setting is: under setting [1], less than 10000 µg/mL; under setting [2], less than 10000 µg/mL; under setting [3], less than 10000 µg/mL; under setting [4], less than 10000 µg/mL; under setting [5], less than 10000 µg/mL; under setting [6], less than 10000 µg/mL. Also, where the note is “organic solvents, general statement”, the “Solubility in organic solvents (in words)” value was “hardly dissolves”.
In the case of `CCCCCCCCc1cc(-c2ccc(CCCC)cc2)sc1-c1nc2sc(-c3sc(-c4ccc(CCCC)cc4)cc3CCCCCCCC)nc2s1` [Exemplary Compound (25)], the solubility runs as follows: under setting [1], greater than 10000 µg/mL; under setting [2], greater than 10000 µg/mL; under setting [3], greater than 10000 µg/mL; under setting [4], greater than 10000 µg/mL; under setting [5], greater than 10000 µg/mL; under setting [6], greater than 10000 µg/mL.
Regarding `CCCCCCCCCCCCc1ccc(-c2cc(CCCCCCCC)c(-c3nc4sc(-c5sc(-c6ccc(CCCCCCCCCCCC)cc6)cc5CCCCCCCC)nc4s3)s2)cc1` [Exemplary Compound (28)], the solubility is, setting by setting: under setting [1], greater than 10000 µg/mL; under setting [2], greater than 10000 µg/mL; under setting [3], greater than 10000 µg/mL; under setting [4], greater than 10000 µg/mL; under setting [5], greater than 10000 µg/mL; under setting [6], greater than 10000 µg/mL.
Regarding `CCCCCCCCc1ccc(-c2cc(C)c(-c3nc4sc(-c5sc(-c6ccc(CCCCCCCC)cc6)cc5C)nc4s3)s2)cc1` [Exemplary Compound (8)], the solubility is greater than 10000 µg/mL under setting [1]; less than 10000 µg/mL under setting [2]; greater than 10000 µg/mL under setting [3]; greater than 10000 µg/mL under setting [4]; less than 10000 µg/mL under setting [5]; less than 10000 µg/mL under setting [6].
Regarding `CC(C)(C)c1ccc(-c2ccc(-c3nc4sc(-c5ccc(-c6ccc(C(C)(C)C)cc6)s5)nc4s3)s2)cc1` [Exemplary Compound (15)], the solubility under setting [1] is less than 10000 µg/mL; the solubility under setting [2] was less than 10000 µg/mL; the solubility under setting [3] was less than 10000 µg/mL; the solubility under setting [4] is less than 10000 µg/mL; the solubility under setting [5] is less than 10000 µg/mL; the solubility under setting [6] was less than 10000 µg/mL.
